Assay results as given in patent US20100063077A1, “PYRIMIDINE DERIVATIVES FOR THE TREATMENT OF AMYLOID-RELATED DISEASES” (SENEXIS LIMITED, priority 2006, published 2010).
Like-named read-outs stand apart in the source and are kept apart here.

Legend:
Aβ(1-42) = target: T1, Aβ(1-42) (Homo sapiens, UniProt P05067); assay: Thioflavin T fluorimetric assay of Aβ(1-42) aggregation; assay type: biochemical; settings: 10 μM Aβ(1-42); read-out: IC50, inhibiting Aβ(1-42) aggregation (thioflavin-T fluorimetric assay)
T1 construct: dissolving Aβ(1-42) HCl salt in hexafluoroisopropanol (HFIP)
T1 sequence (P05067 672-713): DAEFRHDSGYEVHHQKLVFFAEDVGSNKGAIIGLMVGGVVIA
Protocol: Aβ(1-42) was prepared for amyloid aggregation and toxicity assays by dissolving Aβ(1-42) HCl salt in hexafluoroisopropanol (HFIP), with brief sonication and vortexing. This solution of the Aβ(1-42) peptide in HIT was stored at 4° C.@2 mM. When required, an aliquot of this stock solution was freeze-dried and dissolved in DMSO to 200 times the required final assay concentration (e.g. 2 mM for a final assay concentration of 10 μM). A 20 mM stock solution of each test compound was prepared in DMSO, and aliquots of these solutions were used to prepare further stock solutions of each test compound in DMSO, ranging in concentration from 3 μM up to 10 mM. These stock solutions were prepared for use as and when required and stored at −20° C. (maximum of 3 freeze-thaw cycles). The 20 mM parent stock solutions were stored frozen at −20° C. The daughter plate is sealed with silver seal and incubated at 37° C. for 24 and 48 hours for the Thioflavin T assay (LeVine and Scholten 1999). The activity of compounds in inhibiting 10 μM Aβ(1-42) aggregation was assessed by using a thioflavin-T fluorimetric assay. At each timepoint, a 50 or 100 μl aliquot is taken from each well of the daughter plate and dispensed into a black 96 well plate. Equal volume (50 or 100 μl) Thioflavin T [40 μM] (in Glycine buffer [50 mM] —NaOH pH 8.5) is added to each well. The plate was shaken and fluorescence was recorded using the top reader setting (10×1 msec), using excitation and emission filters of 440 (±15) and 485 (±10) nm, respectively. Fluorescence readings from equivalent experiments were averaged and % amyloid formation was determined as follows: [formula] Activity of compounds in inhibiting 10 μM Aβ(1-42) aggregation using thioflavin-T fluorimetric assay

SH SY5Y cells = assay: Cell viability assay for amyloid toxicity using MTT reduction; assay type: cell-based; settings: 10 μM Aβ(1-42), 24 h incubation, read-out: IC50, protecting SH SY5Y cells from a toxic insult of Aβ(1-42) (MTT reduction as measure of cell viability)
Protocol: Aβ(1-42) was prepared for amyloid aggregation and toxicity assays by dissolving Aβ(1-42) HCl salt in hexafluoroisopropanol (HFIP), with brief sonication and vortexing. This solution of the Aβ(1-42) peptide in HIT was stored at 4° C.@2 mM. When required, an aliquot of this stock solution was freeze-dried and dissolved in DMSO to 200 times the required final assay concentration (e.g. 2 mM for a final assay concentration of 10 μM).
A 20 mM stock solution of each test compound was prepared in DMSO, and aliquots of these solutions were used to prepare further stock solutions of each test compound in DMSO, ranging in concentration from 3 μM up to 10 mM. These stock solutions were prepared for use as and when required and stored at −20° C. (maximum of 3 freeze-thaw cycles). The 20 mM parent stock solutions were stored frozen at −20° C.
The activity of compounds in protecting SH SY5Y cells from a toxic insult of 10 μM Aβ(1-42) was assessed by using inhibition of MTT reduction as a measure of cell viability. An aliquot (3 μl) of test compound [various concentrations] in DMSO is added to 294 μl of Opti-Mem (containing 2% FBS, 1% Pen/Strep, 1% L-Gln) {daughter plate}. The well is mixed thoroughly. Then an aliquot (3 μl) of Aβ(1-42) [2 mM] is added to the daughter plate wells and again mixed thoroughly. 50 μl is then aspirated and dispensed into wells containing 50 μl media+SH SY5Ycells (cells are also plated in Opti-Mein, at ˜30,000 cells/well/50 μl). Final concentrations of compound on cells range from [50 μM] to [˜15 nM] with a final concentration of Aβ(1-42) of [10 μM].
Cell plates are incubated for 24 h and then the MTT assay (Shearman, 1999). is performed. […] The plate was shaken and the absorbance was recorded at both 570 nm and 650 nm. ΔA values were calculated by subtracting absorbance at 650 nm from absorbance at 570 nm, to reduce non-specific background absorbance. ΔA values from equivalent experiments were averaged and % cell viability was determined as follows: […]

SMILES	IC50 (Aβ(1-42)) [µM]	IC50 (SH SY5Y cells; Homo sapiens, SH-SY5Y) [µM]	IC50 (SH SY5Y cells) [µM]
Oc1cccc(Nc2ncc(Nc3cccc(C(F)(F)F)c3)cn2)c1 [Example 4, 2-(3-Hydroxyphenylamino)-5-[3-(trifluoromethyl)phenylamino]-pyrimidine]	13	–	–
Oc1cccc(Nc2cnc(Nc3cccc(C(F)(F)F)c3)nc2)c1 [Example 8, 2-(3-Trifluoromethylphenylamino)-5-(3-hydroxyphenylamino)-pyrimidine]	5	–	–
COc1cccc(Nc2cnc(Nc3ccc(Cl)c(Cl)c3)nc2)c1 [Example 10, 2-(3,4-Dichlorophenylamino)-5-(3-methoxyphenylamino)-pyrimidine]	8.5	–	–
Oc1cccc(Nc2ccc(Nc3cccc(O)c3)nn2)c1 [RS-0406, reference compound]	–	–	40

Second part, led by results:

IC50 (Aβ(1-42)) [µM]	SMILES	IC50 (SH SY5Y cells; Homo sapiens, SH-SY5Y) [µM]	IC50 (SH SY5Y cells) [µM]
32	Oc1cccc(Nc2cnc(Nc3cccc(O)c3)nc2)c1 [Example 2, 2,5-Bis-(3-hydroxyphenylamino)pyrimidine]	14	–
22	CN(c1ccccc1)c1cnc(Nc2cccc(O)c2)nc1 [Example 11, 2-(3-Hydroxyphenylamino)-5-[phenyl(methyl)amino]pyrimidine]	30	–
